# Experimental data taken from patent EP0549291A1, “Thymidylate synthase inhibitors” (TAKEDA CHEMICAL INDUSTRIES, LTD., priority 1991, dated 1993).
# pIC50: −log10 of the molar value.
# Assays:
# [1] = molecular target: T1, thymidylate synthase (TS) (Mus musculus, UniProt P07607); assay: Assay of TS inhibitory activity; assay type: biochemical; settings: crude TS fraction from Meth A cells; [H³]dUMP, 37°C, 1 hour; read-out: TS inhibitory activity IC₅₀
# T1 construct: A crude fraction of TS was prepared from Meth A fibrosarcoma (Meth A) cells subcultured in vitro; endogenous in cells; host or cells: Meth A fibrosarcoma cells (100,000 x g supernatant of ultrasonicated cells)
# T1 sequence (P07607 whole entry): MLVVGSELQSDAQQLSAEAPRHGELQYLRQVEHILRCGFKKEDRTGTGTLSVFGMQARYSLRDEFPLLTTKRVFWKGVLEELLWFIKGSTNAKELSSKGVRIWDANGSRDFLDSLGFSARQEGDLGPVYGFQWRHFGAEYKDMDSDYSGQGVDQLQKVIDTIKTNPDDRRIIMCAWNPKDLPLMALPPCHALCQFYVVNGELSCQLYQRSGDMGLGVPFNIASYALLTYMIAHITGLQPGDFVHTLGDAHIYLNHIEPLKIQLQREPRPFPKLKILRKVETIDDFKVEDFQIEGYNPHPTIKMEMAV
# Protocol: Assay of TS inhibitory activity
# A crude fraction of TS was prepared from Meth A fibrosarcoma (Meth A) cells subcultured in vitro. For cell culture, Eagle's minimum essential medium (MEM, Nissui Pharmaceutical) containing 10% fetal bovine serum was used. Cells in the logarithmic growth phase were harvested, washed twice with phosphate buffered saline, suspended in 0.2 M sucrose and 0.01 M Tris-HCl buffer (pH 7.5), ultrasonicated, and centrifuged at 100,000 x g to obtain a supernatant. The protein concentration was determined using a protein dye reagent (Bio-Rad) with bovine γ-globulin as standard protein. Samples with a protein concentration of 100 mg/ml were prepared.
# The enzymatic reaction was conducted as follows, using the method described by D. Roberts in Biochemistry 5, 3546 (1966), partially modified. The reaction mixture consisted of 0.058% formaldehyde, 6.78 mM sodium fluoride, 0.2 mM 2-mercaptoethanol, 6.24 mg/ml bovine serum albumin, 80 µM […] (dUMP), 80 µM tetrahydrofolic acid, 2 mg/ml crude TS fraction, and 0.173 M Tris-HCl buffer (pH 7.5). To this mixture was added a varying concentration of each Example compound. To 50 µl of each final mixture was added 540 KBq [H³]dUMP and the resultant mixture was incubated in a 96-well plate at 37°C for 1 hour. After completion of the incubation, 26.65% trichloroacetic acid and 3.33 mg/ml dUMP were added to stop the reaction and 220 µl of 11.4 mg/ml activated charcoal was added. The whole volume was centrifuged and the radioactivity in 100 µl of the supernatant was determined by the liquid scintillation method. Thus, the concentration required to cause 50% inhibition of TS activity (IC₅₀ value) was obtained.
# [2] = system: Meth A fibrosarcoma (Meth A) cells; assay: Assay of antiproliferative activity against Meth A fibrosarcoma (Meth A) cells; assay type: cell-based; settings: Mus musculus, 72 hours culture at 37°C and 5% CO₂, cell count with Coulter counter, mean of 3 wells, read-out: Meth A cell growth inhibitory activity IC₅₀
# Protocol: Assay of antiproliferative activity against Meth A fibrosarcoma (Meth A) cells
# Meth A cells (2 x 10⁴ cells/ml) prepared in the routine manner were seeded, 2.0 ml per well, in a 12-well plate and subjected to stationary culture at 37°C and 5% CO₂. Each Example compound dissolved at an appropriate concentration was serially diluted 1:2 to 1:10 with MEM (Nissui Pharmaceutical) and added in the medium and again the cells were subjected to stationary culture for 72 hours at 37°C and 5% CO₂. Then, the total cell count at each concentration was determined with a Coulter counter (Coulter Electronics, FL) and the mean value of 3 wells was expressed as cell count per milliliter. The concentration of each compound required to reduce the cell count of the untreated control group to 50% was regarded as the IC₅₀ value of the compound.
pIC50 [1],SMILES,pIC50 [2]
7.08,"Nc1nc2[nH]cc(Cc3ccc(C(=O)N[C@@H](CCC(=O)O)C(=O)O)s3)c2c(=O)[nH]1 [Example 6, N-[5-(2-amino-4-hydroxy-7H-pyrrolo[2,3-d]pyrimidin-5-yl)methyl-2-thenoyl]-L-glutamic acid]",7.20
6.31,"Nc1nc(O)c2c(Cc3ccc(C(=O)N[C@@H](CCC(=O)O)C(=O)O)cc3F)c[nH]c2n1 [Example 8, N-[4-(2-amino-4-hydroxy-7H-pyrrolo[2,3-d]pyrimidin-5-yl)methyl-3-fluorobenzoyl]-L-glutamic acid]",6.96
7.41,"CC(c1ccc(C(=O)N[C@@H](CCC(=O)O)C(=O)O)cc1)c1c[nH]c2nc(N)nc(O)c12 (stereo partly drawn) [Example 10, N-[4-[1-(2-amino-4-hydroxy-7H-pyrrolo[2,3-d]pyrimidin-5-yl)ethyl]benzoyl]-L-glutamic acid]",7.18
7.43,"C=CC(c1ccc(C(=O)N[C@@H](CCC(=O)O)C(=O)O)cc1)c1c[nH]c2nc(N)nc(O)c12 (stereo partly drawn) [Example 14, N-[4-[1-(2-amino-4-hydroxy-7H-pyrrolo[2,3-d]pyrimidin-5-yl)-2-propenyl]benzoyl]-L-glutamic acid]",7.04
6.23,"Nc1nc(O)c2c(C(C[N+](=O)[O-])c3ccc(C(=O)N[C@@H](CCC(=O)O)C(=O)O)cc3)c[nH]c2n1 (stereo partly drawn) [Example 16, N-[4-[1-(2-amino-4-hydroxy-7H-pyrrolo[2,3-d]pyrimidin-5-yl)-2-nitroethyl]benzoyl]-L-glutamic acid]",7.03

# The next lines start with the compound.
SMILES,pIC50 [1],pIC50 [2]
"Cn1cc(Cc2ccc(C(=O)N[C@@H](CCC(=O)O)C(=O)O)cc2)c2c(O)nc(N)nc21 [Example 2, N-[4-(2-amino-4-hydroxy-7-methylpyrrolo-[2,3-d]pyrimidin-5-yl)methylbenzoyl]-L-glutamic acid]",6.07,–
"Nc1nc(O)c2c(Cc3ccc(C(=O)N[C@@H](CCC(=O)O)C(=O)O)cc3)c[nH]c2n1 [Example 4, N-[4-(2-amino-4-hydroxy-7H-pyrrolo[2,3-d]pyrimidin-5-yl)methylbenzoyl]-L-glutamic acid]",–,7.12
"CCC(c1ccc(C(=O)N[C@@H](CCC(=O)O)C(=O)O)cc1)c1c[nH]c2nc(N)nc(O)c12 (stereo partly drawn) [Example 12, N-[4-[1-(2-amino-4-hydroxy-7H-pyrrolo[2,3-d]pyrimidin-5-yl)propyl]benzoyl]-L-glutamic acid]",–,7.41
"NCC(c1ccc(C(=O)N[C@@H](CCC(=O)O)C(=O)O)cc1)c1c[nH]c2nc(N)nc(O)c12 (stereo partly drawn) [Example 18, N-[4-[1-(2-amino-4-hydroxy-7H-pyrrolo[2,3-d]pyrimidin-5-yl)-2-aminoethyl]benzoyl]-L-glutamic acid]",–,6.09
